Experimental data published in PMC11377395 (Purinergic Signalling, 2024).

Target: T1, A3 adenosine receptor (hA3AR) (Homo sapiens, UniProt P0DMS8)
T1 construct: gene ADORA3
T1 sequence (P0DMS8 1-318): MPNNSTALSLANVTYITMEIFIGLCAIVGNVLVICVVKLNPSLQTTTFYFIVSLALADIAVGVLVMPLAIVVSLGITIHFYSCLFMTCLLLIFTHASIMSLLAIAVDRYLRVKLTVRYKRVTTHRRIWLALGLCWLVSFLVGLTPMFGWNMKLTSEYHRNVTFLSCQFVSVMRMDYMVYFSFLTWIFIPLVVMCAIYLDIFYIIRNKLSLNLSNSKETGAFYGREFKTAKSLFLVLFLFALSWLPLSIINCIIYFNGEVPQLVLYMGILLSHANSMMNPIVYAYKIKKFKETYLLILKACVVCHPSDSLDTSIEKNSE
Assay: positive allosteric modulation of MRS5698 at […] in cAMP assay, CHO-hA3AR (also HL-60 cells)
Format: cell-based

Clc1ccc(Nc2nc3ccccc3c3[nH]c(C4CCCCC4)nc23)cc1Cl [LUF6000, N-(3,4-Dichloro-phenyl)-2-cyclohexyl-1 H-imidazo[4,5-c]quinolin-4-amine]
% Emax enhancement: 19 % Emax enhancement
